Test results from US7348400B2 (priority 2001, dated 2008).

Legend:
nAChR = assay type: binding, bovine
[1] = test system: unmyelinated primary afferent sensory nerves; details: rat, in vivo

Row | Compound | displacement of 3H-epibatidine binding (nAChR) | also measured
1 | C[N+]1(C)CCN(c2ccccc2)CC1.[I-] [DMPP, 1,1-dimethyl-4-phenylpiperazinium iodide] | displaced | –
2 | Clc1ccc(C2CC3CCC2N3)cn1 (stereo not drawn) [^3H-epibatidine, epibatidine] | – | Hill coefficient of 3H-epibatidine binding (nAChR): 1.08
3 | C[N+](C)(C)CCOC(N)=O [carbachol] | displaced | –
4 | Nc1cc[nH]c(=O)n1 [cytosine] | displaced | –
5 | CN1CCCC1c1cccnc1 (stereo not drawn) [nicotine] | displaced | –
6 | ω-conotoxin GVIA | – | inhibition of the vascular response to LFES of sensory nerves [1]: significant inhibition
